From patent US8536304B2, “Tumour-associated peptides that bind to MHC molecules” (Immatics Biotechnologies GmbH, priority 2002, dated 2013)

Legend:
Format in all cases: cell-based, human
[1] = tested on: MZ 1257 (renal cell carcinoma); assay: 51Cr-release CTL-assay against tumor cell line MZ 1257; conditions: cell line MZ 1257, FIG. 3c / 3f
Description: (§1) In the CTL-assays, tumor cells, peptide-pulsed cells of different cell lines and autologous DC were used as target cells. Peptide-pulsed cells were pulsed with 50 μg/ml peptide (SEQ ID No. 1 or SEQ ID No. 2) for 2 hours. All target cells were labeled with [^51Cr] sodium chromate in RP10 (RPMI 1640, supplemented with 10% heat inactivated calf serum and antibiotics) for 1 hour at 37° C. Subsequently, 10^4 cells/well were transferred to a 96-well round bottomed plate. Varying numbers of CTL were added to give a final volume of 200 μl and incubated for 4 hours at 37° C. At the end of the assays, supernatants (50 μl/well) were harvested and counted in a beta-plate counter. […] The spontaneous and maximal release were determined in the presence of either medium or 2% Triton X-100, respectively.
(§2) Next, it was tested, in a standard tumor ^51Cr-release-assays again, whether CTL specific for the c-Met-peptide with SEQ ID No. 1 or for adipophilin-peptide with SEQ ID No. 2 recognized and lysed tumor cells, which endogenously express the c-Met-protooncogene or adipophilin. […]

U 266 (multiple myeloma) = assay: 51Cr-release CTL-assay against tumor cell line U 266; conditions: cell line U 266, FIG. 3d / 3e
Description: as §1, §2

[2] = tested on: T2-cells (HLA-A*02-positive, TAP deficient); assay: 51Cr-release CTL-assay against peptide-pulsed T2-cells; conditions: CTL induced with SEQ ID No. 1 (FIG. 2a) or SEQ ID No. 2 (FIG. 2c); targets pulsed 50 μg/ml 2 hours
Description: For CTL induction, the DC obtained in step 2.1 (5×10^5) were pulsed with the peptides obtained in step 2.2 with SEQ ID No. 1 or SEQ ID No. 2, each with 50 μg/ml for 2 hours, washed and incubated with 2.5×10^6 autologous PBMNC in RP10 medium.
After 7 days of culture, cells were restimulated with autologous PBMNC pulsed with peptides. In doing so, 1 ng/ml human recombinant Interleukin IL-2 (R&D Systems) was added on days 1, 3 and 5. The cytolytic activity of thereby induced CTL was analyzed on day 5 after the last restimulation in a standard ^51Cr-release-assay (see below, under 2.4: CTL-assay).
as §1, with “respectively. […]” for “respectively.”

[3] = tested on: autologous DC electroporated with RNA; assay: 51Cr-release CTL-assay against autologous DC electroporated with RNA
Description: as §1
In a next experiment, the cytotoxic activity of CTL in an autologous setting was analyzed. In doing so, autologous DC, generated from the same PBMNC that were utilized for CTL induction (see under 2.2.), were used as target cells. Prior to the CTL-assay, the DC were electroporated with RNA, which was previously isolated either from tumor cell lines or which represented control-RNA (in vitro transcribed EGFP-RNA, enhanced Green fluorescent protein-RNA); plasmide: pSP64 Poly(A) EGFPII, obtained from Van Tendeloo, Antwerp, Belgium). Total RNA of tumor cells was isolated with the QIAGEN Rneasy Mini Kit (QIAGEN, Hilden, Germany) according to the manufacturer's protocol. Quantity and purity of RNA were determined by spectrophotometry and stored in aliquots at −80° C.
Prior to electroporation on day 6, immature DC were washed twice with serum-free X-VIVO 20 medium (BioWhittaker, Walkersville, USA) and resuspended to a final concentration of 2×10^7 cells/ml. Subsequently, 200 μl of the cell suspension were mixed with 10 μg of total RNA and electroporated in a 4 mm-cuvette using an Easyject Plus™ (Peglab, Erlangen, Germany) (parameters: 300 V, 150 μF, 1540Ω, pulse time 231 ms). After electroporation the cells were immediately transferred into RP10 medium and returned to the incubator.

51Cr-labeled A 498 = assay: Lysis-inhibition assay with cold peptide-pulsed T2 inhibitor cells, target A 498
Description: To further verify the antigen-specificity and the MHC-restriction of the in-vitro-induced CTL, inhibition assays with non-^51Cr-labeled (“cold”) inhibitor cell lines were performed.
In doing so, the ability of peptide-pulsed cell lines was analyzed to inhibit the lysis of tumor cells (competition assay). For this purpose, an excess of inhibitor (that is an excess of unlabeled pulsed cells) was used. The ratio of inhibitor (peptide-pulsed cells) to target (tumor cells) was 20:1. When inhibitor cell lines were lysed, no ^51Cr was released, since the inhibitor cell lines were unlabeled.
Cell line T2 (HLA-A*02; TAP-deficient; see under 2.5.a) was used as inhibitor. Previous to the assay, this cell line T2 was pulsed with the relevant peptides (SEQ ID NOS:1 or 2) or an irrelevant control peptide (Survivin (=Sv), SEQ ID NO:80), respectively.
In FIGS. 4a and 4b, lysis of the ^51Cr-labeled cell lines U 266 and A 498 was tested without inhibitor cell line (see the curve with black filled boxes); lysis with inhibitor cell line T2, pulsed with an irrelevant peptide (Survivin; SEQ ID NO:80; negative control, curves with the filled triangles); and lyses with the inhibitor cell line T2 pulsed with the c-Met-peptide with SEQ ID NO:1 (curves with the empty rhombus).
With these inhibition assays, the cells were incubated with 10 μg/ml antibody previous to seeding on the 96-well-plates for 30 min.

Row | Sequence | lysis of tumor cells by CTL induced with the peptide [1] | lysis of tumor cells by CTL induced with the peptide (U 266 (multiple myeloma)) | lysis of T2-cells pulsed with the peptide [2] | lysis of autologous DC electroporated with tumor RNA by CTL induced with the peptide ([3]; RNA of A 498, FIG. 5a / 5b) | lysis of autologous DC electroporated with tumor RNA by CTL induced with the peptide ([3]; RNA of MCF-7, FIG. 5a) | lysis of autologous DC electroporated with RNA by CTL induced with the peptide ([3]; RNA of non-C-met-expressing cell line Croft, FIG. 5a) | lysis of 51Cr-labeled tumor cells in presence of unlabeled T2 inhibitor cells pulsed with the peptide (51Cr-labeled A 498; c-Met-peptide-induced CTL, inhibitor:target 20:1, FIGS. 4a and 4b) | lysis of autologous DC electroporated with RNA by CTL induced with the peptide ([3]; control (EGFP) RNA, FIG. 5b) | inhibition of CTL-induced lysis of tumor cell line by T2 cells pulsed with the peptide (51Cr-labeled A 498; adipophilin-peptide-induced CTL, FIG. 4c)
1 | YVDPVITSI (listed as Homo sapiens) [SEQ ID No. 1, HLA-A*02 ligand, met proto-oncogen 654-662] | efficiently lyse | efficiently lyse | lysed | specific lysis | specific lysis | not lysed | not lysed |  | 
2 | SVASTITGV (listed as Homo sapiens) [SEQ ID No. 2, HLA-A*02 ligand, adipose differentiation-related protein 129-137] | efficiently lyse | efficiently lyse | lysed | lysed |  |  |  | not lysed | able to inhibit
